Read-outs that look alike come from different tables or passages of the source.
Target: Pseudomonas aeruginosa LpxC enzyme (Pseudomonas aeruginosa (strain ATCC 15692 / DSM 22644 / CIP 104116 / JCM 14847 / LMG 12228 / 1C / PRS 101 / PAO1), UniProt P47205)
Experiment: biochemical
Format: biochemical
[1] = inhibitory activity on Pseudomonas aeruginosa LpxC enzyme, class symbols A/B/C, read-out: Enzyme inhibitory activity

SMILES | IC50 [1] | IC50 (class symbols A/B/C by IC50, Table 3, read-out: Enzyme inhibitory activity (inhibitory activity on Pseudomonas aeruginosa LpxC enzyme))
CNC(=O)C(C(=O)NO)N(C)C(=O)c1ccc(-c2ccc(C(=O)NC(C)(C)C)cc2)cc1 (stereo not shown) [Compound 248, N′-tert-butyl-N-[1-(hydroxyamino)-3-(methylamino)-1,3-dioxopropan-2-yl]-N-methylbiphenyl-4,4′-dicarboxamide] | 10 to 100 nM | 
CCCCCCCCOc1ccc(C(=O)N(C)C(C(=O)NC)C(=O)NO)cc1 (stereo not shown) [Compound 25, N-hydroxy-N′-methyl-2-{methyl[4-(octyloxy)benzoyl]amino}propanediamide] | 10 to 100 nM | 
CNC(=O)C(C(=O)NO)N(C)C(=O)c1ccc(-c2ccc(OCCCN(C)Cc3ccccc3)cc2NC)cc1 (stereo not shown) [Compound 106, 2-[{[4′-{3-[benzyl(methyl)amino]propoxy}-2′-(methylamino)biphenyl-4-yl]carbonyl}(methyl)amino]-N-hydroxy-N′-methylpropanediamide] | 10 to 100 nM | 
CNC(=O)C(C(=O)NO)N(C)C(=O)c1cnc(-c2ccc(OC)cc2)c(F)c1 (stereo not shown) [Compound 457, 2-[{[5-fluoro-6-(4-methoxyphenyl)pyridin-3-yl]carbonyl}(methyl)amino]-N-hydroxy-N′-methylpropanediamide] | 10 to 100 nM | 
CN(C)C(=O)CNC(=O)C(NC(=O)c1ccc(-c2ccc(OCCO)cc2)cc1)C(=O)NO (stereo not shown) [Compound 144, N-[2-(dimethylamino)-2-oxoethyl]-N′-hydroxy-2-({[4′-(2-hydroxyethoxy)biphenyl-4-yl]carbonyl}amino)propanediamide] | < 10 nM | 
CNC(=O)C(C(=O)NO)N(C)C(=O)c1ccc(-c2ccc3c(ccn3CCCCO)c2)cc1 (stereo not shown) [Compound 26, N-hydroxy-2-[{4-[1-(4-hydroxybutyl)-1H-indol-5-yl]benzoyl}(methyl)amino]-N′-methylpropanediamide] | < 10 nM | 
CNC(=O)C(C(=O)NO)N(C)C(=O)c1ccc(-c2ccc(/N=C/NO)cc2)cc1 (stereo not shown) [Compound 272, N-hydroxy-2-{[(4′-{[(E)-(hydroxyamino)methylidene]amino}biphenyl-4-yl)carbonyl](methyl)amino}-N′-methylpropanediamide] | < 10 nM | 
CNC(=O)[C@](C)(C(=O)NO)N(C)C(=O)c1ccc(C#Cc2ccc(CN3CCCOCC3)cc2)cc1 [Compound 377, (2R)-N-hydroxy-N′,2-dimethyl-2-{methyl[(4-{[4-(1,4-oxazepan-4-ylmethyl)phenyl]ethynyl}phenyl)carbonyl]amino}propanediamide] | < 10 nM | 
O=C(NC(C(=O)NO)C(=O)NCC1CCC1)c1ccc(-c2ccc(OCCO)cc2)cc1 (stereo not shown) [Compound 128, N-(cyclobutylmethyl)-N′-hydroxy-2-({[4′-(2-hydroxyethoxy)biphenyl-4-yl]carbonyl}amino)propanediamide] | < 10 nM | 
CNC(=O)C(C(=O)NO)N(C)C(=O)c1ccc(-c2ccc(OCCCNc3ccccc3)cc2)cc1 (stereo not shown) [Compound 75, N-hydroxy-N′-methyl-2-[methyl({4′-[3-(phenylamino)propoxy]biphenyl-4-yl}carbonyl)amino]propanediamide] | < 10 nM | 
CNC(=O)C(C(=O)NO)N(C)C(=O)c1ccc(-c2ccc(OCCCN3CCN(c4ccccc4)CC3)cc2)cc1 (stereo not shown) [Compound 84, N-hydroxy-N′-methyl-2-[methyl({4′-[3-(4-phenylpiperazin-1-yl)propoxy]biphenyl-4-yl}carbonyl)amino]propanediamide] | < 10 nM | 
CNC(=O)C(C(=O)NO)N(C)C(=O)c1ccc(-c2ccc(NCCCNc3ccccc3)cc2)cc1 (stereo not shown) [Compound 100, N-hydroxy-N′-methyl-2-{methyl[(4′-{[3-(phenylamino)propyl]amino}biphenyl-4-yl)carbonyl]amino}propanediamide] | < 10 nM | 
CNC(=O)C(C(=O)NO)N(C)C(=O)c1ccc(-c2ncccn2)cc1 (stereo not shown) [Compound 311, N-hydroxy-N′-methyl-2-(methyl {[4-(pyrimidin-2-yl)phenyl]carbonyl}amino)propanediamide] | > 100 nM | 
CNC(=O)C(C(=O)NO)N(C)C(=O)c1ccc(-c2ccccc2F)c(F)c1 (stereo not shown) [Compound 73, 2-{[(2,2′-difluorobiphenyl-4-yl)carbonyl](methyl)amino}-N-hydroxy-N′-methylpropanediamide] | < 10 nM | 
CNC(=O)C(C(=O)NO)N(C)C(=O)c1ccc(OC(F)(F)F)cc1 (stereo not shown) [Compound 22, N-hydroxy-N′-methyl-2-{methyl[4-(trifluoromethoxy)benzoyl]amino}propanediamide] | > 100 nM | 
CC(=O)NCCNC(=O)C(NC(=O)c1ccc(-c2ccc(OCCO)cc2)cc1)C(=O)NO (stereo not shown) [Compound 135, N-[2-(acetylamino)ethyl]-N′-hydroxy-2-({[4′-(2-hydroxyethoxy)biphenyl-4-yl]carbonyl}amino)propanediamide] | < 10 nM | 
CNC(=O)C(C)(C(=O)NO)N(C)C(=O)c1ccc(C#Cc2ccc(CN3CCCOCC3)cc2)cc1 (stereo not shown) [Compound 346, N-hydroxy-N′,2-dimethyl-2-{methyl[(4-{[4-(1,4-oxazepan-4-ylmethyl)phenyl]ethynyl}phenyl)carbonyl]amino}propanediamide] | < 10 nM | 
CNC(=O)C(C(=O)NO)N(C)C(=O)c1ccc(CCc2ccc(NCCO)cc2)cc1 (stereo not shown) [Compound 176, N-hydroxy-2-{[4-(2-{4-[(2-hydroxyethyl)amino]phenyl}ethyl)benzoyl](methyl)amino}-N′-methylpropanediamide] | < 10 nM | 

Continued, values first:

IC50 [1] | IC50 (class symbols A/B/C by IC50, Table 3, read-out: Enzyme inhibitory activity (inhibitory activity on Pseudomonas aeruginosa LpxC enzyme)) | SMILES
< 10 nM |  | CNC(=O)C(C(=O)NO)N(C)C(=O)c1ccc(-c2ccc3c(c2)cc(CO)n3C)cc1 (stereo not shown) [Compound 41, N-hydroxy-2-[{4-[2-(hydroxymethyl)-1-methyl-1H-indol-5-yl]benzoyl}(methyl)amino]-N′-methylpropanediamide]
< 10 nM |  | CNC(=O)C(C(=O)NO)N(C)C(=O)c1ccc(-c2ccc(NC)c(C(F)(F)F)c2)cc1 (stereo not shown) [Compound 68, N-hydroxy-N′-methyl-2-(methyl{[4′-(methylamino)-3′-(trifluoromethyl)biphenyl-4-yl]carbonyl}amino)propanediamide]
 | 10 to 100 nM | CCOC1CN(Cc2ccc(C#Cc3ccc(C(=O)N(C)C(C(=O)NC)C(=O)NO)cc3)cc2OC)C1 (stereo not shown) [Compound 572, 2-[{[4-({4-[(3-ethoxyazetidin-1-yl)methyl]-3-methoxyphenyl}ethynyl)phenyl]carbonyl}(methyl)amino]-N-hydroxy-N′-methylpropanediamide]
< 10 nM |  | CNC(=O)C(C(=O)NO)N(C)C(=O)c1ccc(-c2ccc(C#CCO)cc2)cc1 (stereo not shown) [Compound 389, N-hydroxy-2-[{[4′-(3-hydroxyprop-1-yn-1-yl)biphenyl-4-yl]carbonyl}(methyl)amino]-N′-methylpropanediamide]
< 10 nM |  | CNC(=O)C(C(=O)NO)N(C)C(=O)c1ccc(C#Cc2ccc(CN3CC4(COC4)C3)cc2)cc1 (stereo not shown) [Compound 322, N-hydroxy-N′-methyl-2-{methyl[(4-{[4-(2-oxa-6-azaspiro[3.3]hept-6-ylmethyl)phenyl]ethynyl}phenyl)carbonyl]amino}propanediamide]
< 10 nM |  | CNC(=O)C(C(=O)NO)N(C)C(=O)c1ccc(-c2ccc(NCCO)cc2)cc1 (stereo not shown) [Compound 179, N-hydroxy-2-[({4′-[(2-hydroxyethyl)amino]biphenyl-4-yl}carbonyl)(methyl)amino]-N′-methylpropanediamide]
10 to 100 nM |  | CNC(=O)C(C(=O)NO)N(C)C(=O)c1ccc(C#Cc2ccc(C3(N)CC3)cc2)cc1 (stereo not shown) [Compound 394, 2-{[(4-{[4-(1-aminocyclopropyl)phenyl]ethynyl}phenyl)carbonyl](methyl)amino}-N-hydroxy-N′-methylpropanediamide]
> 100 nM |  | CNC(=O)C(C(=O)NO)N(C)C(=O)c1ccc(-c2cc(C)ccn2)cc1 (stereo not shown) [Compound 452, N-hydroxy-N′-methyl-2-(methyl {[4-(4-methylpyridin-2-yl)phenyl]carbonyl}amino)propanediamide]
< 10 nM |  | CNC(=O)C(C(=O)NO)N(C)C(=O)c1ccc(C#Cc2ccc(OC)nc2)cc1 (stereo not shown) [Compound 219, N-hydroxy-2-[{4-[(6-methoxypyridin-3-yl)ethynyl]benzoyl}(methyl)amino]-N′-methylpropanediamide]
< 10 nM |  | CNC(=O)C(C(=O)NO)N(C)C(=O)c1ccc(-c2ccc(C#CCN3CCOCC3)cc2)cc1 (stereo not shown) [Compound 390, N-hydroxy-N′-methyl-2-[methyl({4′-[3-(morpholin-4-yl)prop-1-yn-1-yl]biphenyl-4-yl}carbonyl)amino]propanediamide]
10 to 100 nM |  | CNC(=O)C(C(=O)NO)N(C)C(=O)c1ccc(-c2cccc(NC)c2)cc1 (stereo not shown) [Compound 278, N-hydroxy-N′-methyl-2-(methyl {[3′-(methylamino)biphenyl-4-yl]carbonyl}amino)propanediamide]
< 10 nM |  | CNC(=O)C(C(=O)NO)N(C)C(=O)c1ccc(-c2ccc(CCOC)cc2)cc1 (stereo not shown) [Compound 246, N-hydroxy-2-[{[4′-(2-methoxyethyl)biphenyl-4-yl]carbonyl}(methyl)amino]-N′-methylpropanediamide]
< 10 nM |  | CNC(=O)C(C(=O)NO)N(C)C(=O)c1ccc(-c2ccc(C)c(F)c2)cc1 (stereo not shown) [Compound 28, 2-{[(3′-fluoro-4′-methylbiphenyl-4-yl)carbonyl](methyl)amino}-N-hydroxy-N′-methylpropanediamide]
< 10 nM |  | CNC(=O)C(C(=O)NO)N(C)C(=O)c1ccc(-c2ccc(Cl)c(Cl)c2)cc1 (stereo not shown) [Compound 224, 2-{[(3′,4′-dichlorobiphenyl-4-yl)carbonyl](methyl)amino}-N-hydroxy-N′-methylpropanediamide]
10 to 100 nM |  | CNC(=O)C(C(=O)NO)N(C)C(=O)c1ccc(-c2cccc(O)c2)cc1 (stereo not shown) [Compound 48, N-hydroxy-2-{[(3′-hydroxybiphenyl-4-yl)carbonyl](methyl)amino}-N′-methylpropanediamide]
< 10 nM |  | CCCNc1ccc(-c2ccc(C(=O)N(C)C(C(=O)NC)C(=O)NO)cc2)cc1F (stereo not shown) [Compound 231, 2-[{[3′-fluoro-4′-(propylamino)biphenyl-4-yl]carbonyl}(methyl)amino]-N-hydroxy-N′-methylpropanediamide]
